Data taken from PubChem BioAssay (NCI).
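Each compound was tested at five concentrations against cells in 96-well plates for 48 hours. TGI is the concentration that stops growth completely.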

Key:
Experiment in all cases: growth of human tumour cells (NCI), 48 h
[1] = system: SF-539 CNS
[2] = system: NCI-H460 lung
[3] = system: MOLT-4 leukemia
[4] = system: HS 578T breast
[5] = system: HCC-2998 colon
[6] = system: OVCAR-3 ovarian
[7] = system: SN12C renal
[8] = system: SW-620 colon
[9] = system: HCT-116 colon
[10] = system: MCF7 breast
[11] = system: KM12 colon
[12] = system: K-562 leukemia
[13] = system: OVCAR-4 ovarian
[14] = system: SF-268 CNS
[15] = system: SNB-19 CNS
[16] = system: HCT-15 colon
[17] = system: BT-549 breast
[18] = system: NCI-H23 lung
[19] = system: IGROV1 ovarian
[20] = system: HOP-62 NSCLC
[21] = system: HOP-92 NSCLC
[22] = system: SR leukemia
[23] = system: SK-MEL-28 melanoma
[24] = system: SK-MEL-2 melanoma
[25] = system: SK-MEL-5 melanoma
[26] = system: PC-3 prostate
[27] = system: CAKI-1 renal
[28] = system: M14 melanoma
[29] = system: LOX IMVI melanoma
[30] = system: CCRF-CEM leukemia
[31] = system: UACC-257 melanoma
[32] = system: MALME-3M melanoma
[33] = system: DU-145 prostate
[34] = system: SK-OV-3 ovarian
[35] = system: A549 NSCLC
[36] = system: HT29 colon
[37] = system: ACHN renal
[38] = system: EKVX NSCLC
[39] = system: NCI-H522 lung
[40] = system: RXF 393 renal
[41] = system: SF-295 CNS
[42] = system: RPMI-8226 leukemia
[43] = system: NCI-H226 lung
[44] = system: MDA-N
[45] = system: NCI/ADR-RES ovarian
[46] = system: A498 renal
[47] = system: T-47D breast
[48] = system: OVCAR-5 ovarian
[49] = system: COLO 205 colon
[50] = system: TK-10 renal
[51] = system: U251 CNS
[52] = system: MDA-MB-435
[53] = system: HL-60(TB) leukemia
[54] = system: SNB-75 CNS
[55] = system: 786-0 renal
[56] = system: OVCAR-8 ovarian
[57] = system: UACC-62 melanoma
[58] = system: MDA-MB-231 breast
[59] = system: UO-31 renal

Measured: TGI

O=c1c2cccnc2[nH]c2ccc3[nH]ncc3c12
not listed: [59]
> 10 µM: all other assays above

CCCCc1ccc(Nc2nc(=S)c3ncn(COCCO)c3[nH]2)cc1
66.7 µM: [22]
74.4 µM: [6]
59.7 µM: [30]
54 µM: [42]
46.8 µM: [47]
51.3 µM: [39]
90.4 µM: [24]
57.6 µM: [58]
76.1 µM: [29]
54.1 µM: [10]
47.1 µM: [32]
63.4 µM: [21]
54.4 µM: [53]
97.9 µM: [54]
44.5 µM: [49]
51.7 µM: [12]
not listed: [14] | [23]
> 100 µM: all other assays above

COc1ccc(/C=C2/N=C(N/N=C\C(O)C(O)C(O)C(O)CO)NC2=O)cc1 (centres undefined)
not listed: [57]
> 100 µM: all other assays above

O=c1[nH]nc(Cc2ccccc2)n1/N=C\CC/C=N\n1c(Cc2ccccc2)n[nH]c1=O
83.3 µM: [36]
80.9 µM: [42]
41.5 µM: [45]
72.5 µM: [40]
77.7 µM: [14] | [32]
66.3 µM: [1]
90.3 µM: [24]
40.7 µM: [19]
58.7 µM: [54]
48.7 µM: [9]
88.4 µM: [20]
46.6 µM: [57]
58.9 µM: [56]
83.1 µM: [43]
66.6 µM: [18]
53.1 µM: [4]
75 µM: [16]
not listed: [2]
> 100 µM: all other assays above

COC(=O)CC1C(C)(C)C(=O)C2CC3=C4CC(=O)OC(c5ccoc5)C4(C)CCC3C1(C)C2=O (centres undefined)
not listed: [59]
> 100 µM: all other assays above
